Patent publication US12527739B2 (Alcon Inc., priority 2022, dated 2026)

Legend:
M2 muscarinic receptor = target: T1, M2 muscarinic receptor (Homo sapiens, UniProt P08172); assay: Muscarinic receptor radioligand displacement binding, M2
T1 sequence (P08172 1-466): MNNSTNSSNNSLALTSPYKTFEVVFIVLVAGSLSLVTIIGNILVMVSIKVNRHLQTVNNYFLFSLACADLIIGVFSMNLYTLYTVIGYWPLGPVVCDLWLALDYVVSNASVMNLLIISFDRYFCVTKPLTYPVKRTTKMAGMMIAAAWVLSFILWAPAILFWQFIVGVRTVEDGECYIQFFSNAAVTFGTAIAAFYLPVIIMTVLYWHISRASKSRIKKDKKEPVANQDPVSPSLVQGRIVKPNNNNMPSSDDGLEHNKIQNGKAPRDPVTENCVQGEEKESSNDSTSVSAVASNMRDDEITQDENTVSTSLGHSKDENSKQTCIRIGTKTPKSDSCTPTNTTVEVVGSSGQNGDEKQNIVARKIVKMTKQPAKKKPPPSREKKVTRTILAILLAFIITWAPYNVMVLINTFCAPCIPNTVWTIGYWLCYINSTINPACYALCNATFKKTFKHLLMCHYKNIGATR

M4 muscarinic receptor = target: T2, M4 muscarinic receptor (Homo sapiens, UniProt P08173); assay: Muscarinic receptor radioligand displacement binding, M4
T2 sequence (P08173 1-479): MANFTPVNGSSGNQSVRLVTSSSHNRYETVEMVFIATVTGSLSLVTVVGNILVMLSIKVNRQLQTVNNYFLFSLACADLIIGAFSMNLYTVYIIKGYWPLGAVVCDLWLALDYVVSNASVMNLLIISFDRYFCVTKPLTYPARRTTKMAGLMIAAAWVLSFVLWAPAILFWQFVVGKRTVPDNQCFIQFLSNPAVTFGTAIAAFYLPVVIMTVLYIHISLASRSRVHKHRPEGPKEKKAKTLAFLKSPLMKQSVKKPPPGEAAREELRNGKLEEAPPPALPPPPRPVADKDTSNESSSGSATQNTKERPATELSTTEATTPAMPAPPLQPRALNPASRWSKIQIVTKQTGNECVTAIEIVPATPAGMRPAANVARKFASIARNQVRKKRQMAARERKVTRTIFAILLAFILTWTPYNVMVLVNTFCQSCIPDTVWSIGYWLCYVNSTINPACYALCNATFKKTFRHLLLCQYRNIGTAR

[1] = pH adjustment of methyl atropine and benzyl atropine solutions, HPLC analysis; assay type: physicochemical; conditions: for Actual concentration (HPLC) / pH after incubation (24 hours): after pH adjustment; for Initial pH: before pH adjustment

## CN1C2CCC1CC(OC(=O)C(CO)(Cc1ccccc1)c1ccccc1)C2 (racemic) [Benzyl Atropine, benzyl atropine]
M2 muscarinic receptor
  binding to the receptor (in words): not to bind at all
M4 muscarinic receptor
  Ki: 600 nM
  binding to the receptor (in words): bind weakly
[1]; 30 mM Phosphate Buffer, pH 7.4
  Actual concentration (HPLC): 0.05 mg/g
  pH after incubation (24 hours): 6.23
  Initial pH: 7.7
[1]; Phosphate Buffered Saline
  Actual concentration (HPLC): 0.04 mg/g
  pH after incubation (24 hours): 5.7
  Initial pH: 7.7
[1]; lowered pH of the vehicle
  dissolution upon pH adjustment (in words): did not fully dissolve
